Reference: patent US7772241B2, “Variolin derivatives and their use as antitumor agents” (Pharma Mar S.A., priority 2001, dated 2010)

Key:
HT-29 = assay: Inhibition of cells growth by colorimetric (SRB) assay, HT-29
Procedure, shortened: (§1)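 Human tumour cells seeded at 5×10^3/well in RPMI 1640 10% FBS, attached 18 h, then exposed 48 h to samples at 10 to 10^−8 μg/ml in DMSO/EtOH/PBS (0.5:0.5:99). Growth read by SRB staining after TCA fixation, OD 490 nm, triplicate wells; GI, TGI and LC derived.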

A-549 = assay: Inhibition of cells growth by colorimetric (SRB) assay, A-549
Procedure, shortened: as §1

IGROV-1 = assay: Inhibition of cells growth by colorimetric (SRB) assay, IGROV-1
Procedure, shortened: as §1

LoVo = assay: Inhibition of cells growth by colorimetric (SRB) assay, LoVo
Procedure, shortened: as §1

IGROV-ET = assay: Inhibition of cells growth by colorimetric (SRB) assay, IGROV-ET
Procedure, shortened: as §1

K-562 = assay: Inhibition of cells growth by colorimetric (SRB) assay, K-562
Procedure, shortened: as §1

LoVo-Dox = assay: Inhibition of cells growth by colorimetric (SRB) assay, LoVo-Dox
Procedure, shortened: as §1

SK-MEL-28 = assay: Inhibition of cells growth by colorimetric (SRB) assay, SK-MEL-28
Procedure, shortened: as §1

PANC-1 = assay: Inhibition of cells growth by colorimetric (SRB) assay, PANC-1
Procedure, shortened: as §1

DU-145 = assay: Inhibition of cells growth by colorimetric (SRB) assay, DU-145
Procedure, shortened: as §1

SK-OV-3 = assay: Inhibition of cells growth by colorimetric (SRB) assay, SK-OV-3
Procedure, shortened: as §1

SK-BR-3 = assay: Inhibition of cells growth by colorimetric (SRB) assay, SK-BR-3
Description: The finality of these assays is to interrupt the growth of a “in vitro” tumor cell culture by means a continued exhibition of the cells to the sample to be testing.
This form of the assay employs 96 well cell culture microplates of 9 mm diameter (Faircloth, 1988; Mosmann, 1983). Most of the cell lines are obtained from American Type Culture Collection (ATCC) derived from different human cancer types.
Cells are maintained in RPMI 1640 10% FBS, supplemented with 0.1 g/l penicillin and 0.1 g/l streptomycin sulphate and then incubated at 37° C., 5% CO2 and 98% humidity. For the experiments, cells were harvested from subconfluent cultures using trypsin and resuspended in fresh medium before plating.
Cells are seeded in 96 well microtiter plates, at 5×10^3 cells per well in aliquots of 195 μl medium, and they are allowed to attach to the plate surface by growing in drug free medium for 18 hours. Afterward, samples are added in aliquots of 5 μl in a ranging from 10 to 10^−8 μg/ml, dissolved in DMSO/EtOH/PBS (0.5:0.5:99). After 48 hours exposure, the antitumor effect are measured by the SRB methodology: cells are fixed by adding 50 μl of cold 50% (wt/vol) trichloroacetic acid (TCA) and incubating for 60 minutes at 4° C. Plates are washed with deionized water and dried. One hundred μl of SRB solution (0.4% wt/vol in 1% acetic acid) is added to each microtiter well and incubated for 10 minutes at room temperature. Unbound SRB is removed by washing with 1% acetic acid. Plates are air dried and bound stain is solubilized with Tris buffer. Optical densities are read on a automated spectrophotometric plate reader at a single wavelength of 490 nm.
The values for mean +/−SD of data from triplicate wells are calculated. Some parameters for cellular responses can be calculated: GI=growth inhibition, TGI=total growth inhibition (cytostatic effect) and LC=cell killing (cytotoxic effect).

Question: Which GI50 (HT-29; Homo sapiens, HT-29, 48 h, read-out: GI50 HT-29, SRB assay, 48 hours exposure) does the source give for `Nc1nccc2c(-c3ccnc(Oc4ccccc4)n3)c3cccnc3n12` [Compound 78] here?
Answer: The GI50 was 1.34 µM.

Question: What about the “TGI HT-29” value (HT-29; SRB assay, 48 hours exposure) of the same compound?
Answer: Its value is 2.82E−05.

Question: What about the GI50 (A-549; Homo sapiens, A549, 48 h, read-out: GI50 A-549, SRB assay, 48 hours exposure) of the same compound?
Answer: Its GI50 is 0.737 µM.

Question: What about the CC50 (A-549; Homo sapiens, A549, 48 h, read-out: LC50 A-549, SRB assay, 48 hours exposure) of the same compound?
Answer: The CC50 was 8.01 µM.

Question: What about the “TGI A-549” value (A-549; SRB assay, 48 hours exposure) of the same compound?
Answer: Its value is 1.68E−06.

Question: What about the GI50 (IGROV-1; Homo sapiens, IGROV-1, 48 h, read-out: GI50 IGROV, SRB assay, 48 hours exposure) of the same compound?
Answer: The GI50 was 0.621 µM.

Question: What about the CC50 (IGROV-1; Homo sapiens, IGROV-1, 48 h, read-out: LC50 IGROV, SRB assay, 48 hours exposure) of the same compound?
Answer: The CC50 was 4.74 µM.

Question: And the “TGI IGROV” value (IGROV-1; SRB assay, 48 hours exposure)?
Answer: The value was 1.41E−06.

Question: What about the GI50 (LoVo; Homo sapiens, LoVo, 48 h, read-out: GI50 LOVO, SRB assay, 48 hours exposure) of the same compound?
Answer: The GI50 was 0.553 µM.

Question: What about the CC50 (LoVo; Homo sapiens, LoVo, 48 h, read-out: LC50 LOVO, SRB assay, 48 hours exposure) of the same compound?
Answer: The CC50 was 5.05 µM.

Question: And the “TGI LOVO” value (LoVo; SRB assay, 48 hours exposure)?
Answer: The value was 1.44E−06.

Question: And the GI50 (IGROV-ET; Homo sapiens, 48 h, read-out: GI50 IGROV-ET, SRB assay, 48 hours exposure)?
Answer: The GI50 was 1.08 µM.

Question: What about the CC50 (IGROV-ET; Homo sapiens, 48 h, read-out: LC50 IGROV-ET, SRB assay, 48 hours exposure) of the same compound?
Answer: Its CC50 is 14.3 µM.

Question: And the “TGI IGROV-ET” value (IGROV-ET; SRB assay, 48 hours exposure)?
Answer: The value was 2.47E−06.

Question: What about the GI50 (K-562; Homo sapiens, K562, 48 h, read-out: GI50 K-562, SRB assay, 48 hours exposure) of the same compound?
Answer: Its GI50 is 5.5 µM.

Question: And the CC50 (K-562; Homo sapiens, K562, 48 h, read-out: LC50 K-562, SRB assay, 48 hours exposure)?
Answer: Its CC50 is 28.2 µM.

Question: What about the “TGI K-562” value (K-562; SRB assay, 48 hours exposure) of the same compound?
Answer: Its value is 2.30E−05.

Question: What about the GI50 (LoVo-Dox; Homo sapiens, 48 h, read-out: GI50 LOVO-DOX, SRB assay, 48 hours exposure) of the same compound?
Answer: The GI50 was 0.151 µM.

Question: And the CC50 (LoVo-Dox; Homo sapiens, 48 h, read-out: LC50 LOVO-DOX, SRB assay, 48 hours exposure)?
Answer: The CC50 was 18.2 µM.

Question: What about the “TGI LOVO-DOX” value (LoVo-Dox; SRB assay, 48 hours exposure) of the same compound?
Answer: Its value is 1.86E−06.

Question: And the GI50 (SK-MEL-28; Homo sapiens, SK-MEL-28, 48 h, read-out: GI50 MEL-28, SRB assay, 48 hours exposure)?
Answer: The GI50 was 0.717 µM.

Question: And the CC50 (SK-MEL-28; Homo sapiens, SK-MEL-28, 48 h, read-out: LC50 MEL-28, SRB assay, 48 hours exposure)?
Answer: The CC50 was 7.05 µM.

Question: What about the “TGI MEL-28” value (SK-MEL-28; SRB assay, 48 hours exposure) of the same compound?
Answer: Its value is 1.78E−06.

Question: And the GI50 (PANC-1; Homo sapiens, PANC-1, 48 h, read-out: GI50 PANC-1, SRB assay, 48 hours exposure)?
Answer: Its GI50 is 1.34 µM.

Question: What about the CC50 (PANC-1; Homo sapiens, PANC-1, 48 h, read-out: LC50 PANC-1, SRB assay, 48 hours exposure) of the same compound?
Answer: Its CC50 is 28.2 µM.

Question: And the “TGI PANC-1” value (PANC-1; SRB assay, 48 hours exposure)?
Answer: Its value is 1.08E−05.

Question: And the GI50 (DU-145; Homo sapiens, DU-145, 48 h, read-out: GI50 DU-145, SRB assay, 48 hours exposure)?
Answer: Its GI50 is 0.77 µM.

Question: What about the CC50 (DU-145; Homo sapiens, DU-145, 48 h, read-out: LC50 DU-145, SRB assay, 48 hours exposure) of the same compound?
Answer: Its CC50 is 28.2 µM.

Question: What about the “TGI DU-145” value (DU-145; SRB assay, 48 hours exposure) of the same compound?
Answer: The value was 1.87E−06.

Question: And the GI50 (SK-OV-3; Homo sapiens, SK-OV-3, 48 h, read-out: GI50 SKOV-3, SRB assay, 48 hours exposure)?
Answer: The GI50 was 0.784 µM.

Question: And the CC50 (SK-OV-3; Homo sapiens, SK-OV-3, 48 h, read-out: LC50 SKOV-3, SRB assay, 48 hours exposure)?
Answer: Its CC50 is 28.2 µM.

Question: And the “TGI SKOV-3” value (SK-OV-3; SRB assay, 48 hours exposure)?
Answer: The value was 1.87E−06.

Question: And the GI50 (SK-BR-3; Homo sapiens, SK-BR-3, 48 h, read-out: GI50 SK-BR-3, SRB assay, 48 hours exposure)?
Answer: The GI50 was 0.528 µM.

Question: And the CC50 (SK-BR-3; Homo sapiens, SK-BR-3, 48 h, read-out: LC50 SK-BR-3, SRB assay, 48 hours exposure)?
Answer: Its CC50 is 2.49 µM.

Question: What about the “TGI SK-BR-3” value (SK-BR-3; SRB assay, 48 hours exposure) of the same compound?
Answer: Its value is 1.15E−06.
